This is an account of results in patent US6878736B1, “Histamine H3 receptor ligands” (James Black Foundation Limited, priority 1998, dated 2005).

The target of assay [1] is T1, Histamine H3 receptor (Cavia porcellus, UniProt Q9JI35). The assay can be described thus: Histamine H3 radioligand binding assay, guinea pig cortex ([3H]-R-α-methylhistamine). Conditions: guinea pig cortex membranes, competition with 1 nM [3H]-R-α-methylhistamine; for Ki: read-out: pKi (Guinea pig cortex) (converted). As to the method: The compounds of the invention were also tested in a guinea pig cortex binding assay, as follows:
Histamine H3 Radioligand Binding Assay—Guinea Pig Cortex
Male Dunkin Hartley guinea pigs (200-300 g) were used. The whole brain was removed and immediately placed in ice-cold 20 mM Hepes-NaOH buffer (pH7.4 at 21±3° C.). The cortex was dissected, weighed and homogenised in ice-cold 20 mM Hepes-NaOH buffer (pH7.4 at 21±3° C.) (50 ml/guinea-pig cortex) using a polytron (Kinematica AG; PT-DA 3020/2TS, 3×3 s). The homogenate was centrifuged at 100×g for 5 min and the supernatants pooled and stored at 4° C. The pellets were rehomogenised in fresh ice-cold buffer (80 ml) and recentrifuged (100×g for 5 min). The supernatants were pooled and pellets rehomogenised and recentrifuged (100×g for 5 min). All supernatants were pooled and centrifuged at 39,800×g for 12 min at 4° C. The final pellet was resuspended in 20 mM Hepes-NaOH buffer (pH7.4 at 21±3° C.) to a tissue concentration of 7.5 mg.ml^−1, using a teflon-in-glass homogeniser.
Guinea pig cortex membranes (400 μl) were incubated for 165 min at 21±3° C. in a final volume of 500 μl with 20 mM Hepes-NaOH buffer containing [^3H]-R-α-methylhistamine (50 μl; 1 nM) and competing compound. Total and non-specific binding of [^3H]-R-α-methylhistamine were defined using 50 μl of buffer and 50 μl of 10 μM thioperamide, respectively. The assay was terminated by rapid filtration through Whatman GF/B filters, presoaked (2 hr) in 0.1% polyethyleneimine, using a Brandell Cell Harvester. The filters were washed (3×3 ml) with ice-cold 50 mM Tris-HCl (pH6.9 at 21±3° C.), transferred into scintillation vials, 5 ml liquid scintillation cocktail was added and after 4 hours the bound radioactivity was determined by counting (4 min) in a Beckman liquid scintillation counter.
Data are analysed using GraphPad prism and the general equation for a competition curve with variable Hill slope (nH). [formula] where • X is the log concentration of competing compound, • Y is the binding obtained at each concentration of X, • pIC50 is the concentration of the competitor required to compete for half of the specific binding.
The IC50 is converted to the K1 using the Cheng Prusoff equation, K1=IC50/(1+(L/KD)) where • IC50 is the concentration of competitor required to compete for half the specific binding, • L is the radioligand concentration used, • KD is the equilibrium dissociation constant for the radioligand determined by saturation experiments.

For assay [2], the target named is T1, Histamine H3 receptor. The assay can be described thus: Histamine H3 functional assay, guinea pig ileum (ileal longitudinal muscle, myenteric plexus). The conditions noted are these: antagonist affinity from rightward shift of R-(α)-methylhistamine E/[A] curves (Schild), typical variance ±0.15 log units; for Kb: read-out: pKb (Guinea pig ileum) (converted). Also on record: species or system tissue. As to the method: • 1. J. Med. Chem 1994, 314. • 2. WO 97/29092 Histamine H3 Functional Assay—Guinea Pig Ileum
The biological activity of the compounds of the examples was measured using the ileal longitudinal muscle, myenteric plexus assay described by Paton and Aboo Zar (J. Physiol. 1968, 194, 13-33). Male Dunkin-Hartley guinea pigs (250-300 g) were employed. Briefly, a 50 cm portion of ileum proximal to the caecum was removed, after discarding the terminal 20 cm. Ileal segments (3 cm) were cleaned by passing Krebs-Henseleit buffer containing 3 μM mepyramine gently through the ileum using a Pasteur pipette (size: 13.8 cm length, 0.65 cm diameter). To avoid unnecessary damage to the tissue, Krebs-Henseleit buffer was passed through the ileal segment, while it was lying horizontally on a petri dish. Therefore, the ileum was not over-distended and the buffer flowed through with ease. Each segment was then passed over a Pasteur pipette and the longitudinal muscle layer and adhering myenteric plexus was teased away using moist cotton wool, by stroking tangentially away from the mesenteric attachment. The tissues were suspended in 20 ml organ baths containing Krebs-Henseleit buffer at 37±1° C. and gassed with […]. The tissues were ligated to two parallel stainless steel wires, situated between two platinum electrodes (0.76 cm length, 0.06 cm diameter). All measurements were recorded isometrically (Grass FTO3 transducer). Following an initial loading tension of 1 g, the tissues were stimulated with electrical pulses at a frequency of 0.1 Hz and a pulse duration of 0.5 msec, as described by Kosterlitz & Watt (Br. J. Pharmacol. 1968, 266276). Initially, the tissues were stimulated at supramaximal (1.3 fold times maximal) voltage for a period of 30 min and then the tissues were washed and re-stimulated. A “sighter dose” of the selective histamine H3-receptor agonist, R-(α)-methylhistamine (0.3 μM) (Arrang et al. Nature, 1987, 117-123), was administered. Upon generation of response, the “sighter dose” was removed from the tissues by “washout” (6 washes over 60 min) and during this period the electrical stimulation was switched off. The tissues were then re-stimulated and allowed to stabilise prior to the addition of drug treatments, which were allocated on a randomised block basis to the organ baths. Following the incubation period, a single cumulative E/[A] curve was obtained. The experimental E/[A] curve data was expressed as the percentage inhibition of the peak height of electrically-stimulated contraction. Antagonist affinity values were calculated from the degree of rightward shift of the R-(α)-methylhistamine E/[A] curves using Schild's methods (Arunlakshana & Schild Br. J. Pharmacol. 1959, 48-58). Typical variance in this assay is ±0.15 log units.

Where a name gives a salt, the structure may show the parent alone.

T1 sequence (Q9JI35 whole entry): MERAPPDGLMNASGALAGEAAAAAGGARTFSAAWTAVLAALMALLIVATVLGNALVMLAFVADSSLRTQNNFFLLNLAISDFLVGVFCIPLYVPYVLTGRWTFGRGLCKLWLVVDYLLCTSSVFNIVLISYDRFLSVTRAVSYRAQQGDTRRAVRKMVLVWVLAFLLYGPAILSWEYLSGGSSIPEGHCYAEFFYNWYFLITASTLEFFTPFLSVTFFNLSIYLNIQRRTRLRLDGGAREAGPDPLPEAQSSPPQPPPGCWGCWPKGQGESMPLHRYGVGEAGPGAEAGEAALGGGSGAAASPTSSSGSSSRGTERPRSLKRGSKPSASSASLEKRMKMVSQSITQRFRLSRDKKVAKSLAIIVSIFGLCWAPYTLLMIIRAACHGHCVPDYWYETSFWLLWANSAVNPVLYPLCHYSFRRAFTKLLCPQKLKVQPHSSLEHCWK

For `N=C(NCCCN1CCCC1)NCc1ccc2[nH]cnc2c1` [Example 13, N-(1H-Benzimidazol-5-yl-methyl)-N′-(3-pyrrolidin-1-yl-propyl)-guanidine tris-hydrochloride], the Ki at Histamine H3 receptor [1] was 0.02 µM. Further, the Kb on Histamine H3 receptor [2] is 0.501 µM.

`COC(=O)c1ccc(CNC(N)=NCCCN2CCCC2)cc1` [Example 14, 4-(N′-(3-Pyrrolidin-1-yl-propyl)-guanidinomethyl)-benzoic acid methyl ester bis-hydrochloride]: the Ki at Histamine H3 receptor [1] was 0.0251 µM. On Histamine H3 receptor [2], the Kb was 1 µM.

Turning to `N=C(NCCN1CCCC1)NCc1ccc(Cl)cc1` [Example 16, N-(4-Chlorobenzyl)-N′-(2-pyrrolidin-1-yl-ethyl)-guanidine bis-hydrochloride], on Histamine H3 receptor [1], the Ki is 0.631 µM. For the same compound, the Kb on Histamine H3 receptor [2] is 3.98 µM.

`N=C(NCCCCN1CCCC1)NCc1ccc(Cl)cc1` [Example 17]: at Histamine H3 receptor [1], the Ki is 0.00501 µM. On Histamine H3 receptor [2], the Kb is 0.0501 µM.

Regarding `N=C(NCCCCCN1CCCC1)NCc1ccc(Cl)cc1` [Example 18, N-(4-Chlorobenzyl)-N′-(5-pyrrolidin-1-yl-pentyl)-guanidine bis-hydrochloride], the Ki at Histamine H3 receptor [1] is 0.00501 µM. Further, the Kb on Histamine H3 receptor [2] was 0.0501 µM.

For `N=C(NCCCN1CCCC1)Nc1ccc(Cl)cc1` [Example 19, N-(4-Chlorophenyl)-N′-(3-pyrrolidin-1-yl-propyl)-guanidine], the Ki at Histamine H3 receptor [1] is 0.0501 µM. In addition, on Histamine H3 receptor [2], the Kb is 1 µM.

In the case of `N=C(NCCCN1CCCC1)NCCc1ccc(Cl)cc1` [Example 20, N-(2(4-Chlorophenyl)ethyl)-N′-(3-pyrrolidin-1-yl-propyl)-guanidine bis-hydrochloride], the Ki at Histamine H3 receptor [1] was 0.001 µM. Further, on Histamine H3 receptor [2], the Kb is 0.2 µM.

On to `N=C(NCCCc1ccc(Cl)cc1)NCCCN1CCCC1` [Example 21, N-(3-(4-Chlorophenyl)propyl)-N′-(3-pyrrolidin-1-yl-propyl)-guanidine bis-hydrochloride], for which the Ki on Histamine H3 receptor [1] is 0.0501 µM. The Kb on Histamine H3 receptor [2] was 0.158 µM.

On to `N=C(NCCCCc1ccccc1)NCCCN1CCCC1` [Example 22, N-(4-Phenylbutyl)-N′-(3-pyrrolidin-1-yl-propyl)-guanidine bis-hydrochloride], for which the Ki on Histamine H3 receptor [1] is 0.0794 µM. At Histamine H3 receptor [2], the Kb was 0.2 µM.

In the case of `N=C(NCCCCN1CCCC1)NCCc1ccc(Cl)cc1` [Example 24, N-(2-(4-Chlorophenyl)ethyl)-N′-(4-pyrrolidin-1-yl-butyl)-guanidine bis-hydrochloride], the Ki on Histamine H3 receptor [1] is 0.00631 µM. For the same compound, the Kb at Histamine H3 receptor [2] is 0.631 µM.

In the case of `N=C(NCCCCCN1CCCC1)NCCc1ccc(Cl)cc1` [Example 25, N-(2-(4-Chlorophenyl)ethyl)-N′-(5-pyrrolidin-1-yl-pentyl)-guanidine bis-hydrochloride], the Ki on Histamine H3 receptor [1] is 0.00794 µM. Also, the Kb at Histamine H3 receptor [2] was 0.0794 µM.

With `N=C(NCCCN1CCCC1)NCCc1ccc(Br)cc1` [Example 26, N-(2-(4-Bromophenyl)ethyl)-N′-(3-pyrrolidin-1-yl-propyl)-guanidine bis-hydrochloride], the Ki at Histamine H3 receptor [1] is 0.0398 µM. Further, the Kb on Histamine H3 receptor [2] was 0.158 µM.

For the compound `Cl.Cl.N=C(NCCCCCN1CCCC1)NCC12CC3CC(CC(C3)C1)C2` [Example 30, N-Adamantan-1-yl-methyl-N′-(5-pyrrolidin-1-yl-pentyl)-guanidine bis-hydrochloride], the “pKi (Guinea pig cortex)” value at Histamine H3 receptor [1] turned out to be 8.5. For the same compound, on Histamine H3 receptor [2], the “pKb (Guinea pig ileum)” value worked out at 7.9.

With `Cl.Cl.N=C(NCCCCCCN1CCCC1)NCC12CC3CC(CC(C3)C1)C2` [Example 31, N-Adamantan-1-yl-methyl-N′-(6-pyrrolidin-1-yl-hexyl)-guanidine bis-hydrochloride], on Histamine H3 receptor [1] (bis-hydrochloride), the “pKi (Guinea pig cortex)” value is reported as 8.4. Further, the “pKb (Guinea pig ileum)” value on Histamine H3 receptor [2] is listed as 8.0.

In the case of `Cl.Cl.N=C(NCCCCCCCN1CCCC1)NCC12CC3CC(CC(C3)C1)C2` [Example 32, N-Adamantan-1-yl-methyl-N′-(7-pyrrolidin-1-yl-heptyl)-guanidine bis-hydrochloride], on Histamine H3 receptor [1], the “pKi (Guinea pig cortex)” value turned out to be 8.5. Moreover, the “pKb (Guinea pig ileum)” value at Histamine H3 receptor [2] stood at 8.0.

Turning to `N=C(NCCCN1CCCC1)NCCC12CC3CC(CC(C3)C1)C2` [Example 33, N-(2-Adamantan-1-yl-ethyl)-N′-(3-pyrrolidin-1-yl-propyl)-guanidine bis-hydrochloride], the Ki on Histamine H3 receptor [1] was 0.0794 µM. The Kb on Histamine H3 receptor [2] is 0.2 µM.

Consider `N=C(NCCCN1CCCC1)NCCCC12CC3CC(CC(C3)C1)C2` [Example 34, N-(3-Adamantan-1-yl-propyl)-N′-(3-pyrrolidin-1-yl-propyl)-guanidine bis-hydrochloride], for which the Ki on Histamine H3 receptor [1] is 0.316 µM. In addition, on Histamine H3 receptor [2], the Kb is 0.316 µM.

`N=C(NCCCCN1CCCC1)NCCC12CC3CC(CC(C3)C1)C2` [Example 35, N-(2-Adamantan-1-yl-ethyl)-N′-(4-pyrrolidin-1-yl-butyl)-guanidine bis-hydrochloride]: the Ki on Histamine H3 receptor [1] was 0.00794 µM. Moreover, the Kb on Histamine H3 receptor [2] is 0.02 µM.

With `N=C(NCCCCN1CCCC1)NCCCC12CC3CC(CC(C3)C1)C2` [Example 36, N-(3-Adamantan-1-yl-propyl)-N′-(4-pyrrolidin-1-yl-butyl)-guanidine bis-hydrochloride], the Ki on Histamine H3 receptor [1] is 0.0501 µM. For the same compound, at Histamine H3 receptor [2], the Kb was 0.0631 µM.

For the compound `N=C(NCCCCCN1CCCC1)NCCC12CC3CC(CC(C3)C1)C2` [Example 37, N-(2-Adamantan-1-yl-ethyl)-N′-(5-pyrrolidin-1-yl-pentyl)-guanidine bis-hydrochloride], the Ki on Histamine H3 receptor [1] is 0.0126 µM. In addition, on Histamine H3 receptor [2], the Kb is 0.0251 µM.

Consider `N=C(NCCCCCN1CCCC1)NCCCC12CC3CC(CC(C3)C1)C2` [Example 38, N-(3-Adamantan-1-yl-propyl)-N′-(5-pyrrolidin-1-yl-pentyl)-guanidine bis-hydrochloride], for which the Ki at Histamine H3 receptor [1] was 0.0316 µM. In addition, the Kb at Histamine H3 receptor [2] is 0.0631 µM.

Regarding `Cl.Cl.N=C(NCCCCN1CCCC1)NCC1CCCCC1` [Example 40, N-Cyclohexyl-methyl-N′-(4-pyrrolidin-1-yl-butyl)-guanidine bis-hydrochloride], the “pKi (Guinea pig cortex)” value on Histamine H3 receptor [1] came out at 8.4. The “pKb (Guinea pig ileum)” value on Histamine H3 receptor [2] amounted to 7.4.

Take `Cl.Cl.N=C(NCCCCCN1CCCC1)NCC1CCCCC1` [Example 41, N-Cyclohexyl-methyl-N′-(5-pyrrolidin-1-yl-pentyl)-guanidine bis-hydrochloride]: on Histamine H3 receptor [1], the “pKi (Guinea pig cortex)” value is listed as 8.9. Besides, the “pKb (Guinea pig ileum)” value on Histamine H3 receptor [2] stood at 7.5.
